Laboratory results taken from patent publication US6569878B1, “Substituted 4-amino-thiazol-2-yl compounds as cyclin-dependent kinase inhibitors” (Agouron Pharmaceuticals Inc., priority 1997, dated 2003).
pIC50, pKi: −log10 of the molar value.

Tests used:
[1] = biological target: T1, complex of human CDK4 and genetically truncated (1-264) cyclin D3 (Homo sapiens, UniProt P11802); assay: Inhibition of CDK4/cyclin D retinoblastoma kinase activity (D-type cyclin is truncated D3); type: biochemical; details: superscript c: D-type cyclin is truncated D3; read-out: Ki CDK 4/D
T1 construct: made in house; host or cells: insect cells, co-infected with baculovirus
Experimental: Cyclin-dependent kinase activity was measured by quantifying the enzyme-catalyzed, time-dependent incorporation of radioactive phosphate from [^32P]ATP or [^33P]ATP into a protein substrate. Unless noted otherwise, assays were performed in 96-well plates in a total volume of 50 μL, in the presence of 10 mM HEPES (N-[2-hydroxyethyl]piperazine-N′-[2-ethanesulfonic acid]) (pH 7.4), 10 mM MgCl2, 25 μM adenosine triphosphate (ATP), 1 mg/mL ovalbumin, 5 μg/mL leupeptin, 1 mM dithiothreitol, 10 mM β-glycerophosphate, 0.1 mM sodium vanadate, 1 mM sodium fluoride, 2.5 mM ethylene glycol-bis(β-aminoethyl ether)-N,N,N′N′-tetraacetic acid (EGTA), 2% (v/v) dimethylsulfoxide, and 0.03-0.4 μCi [^32/33P]ATP per reaction. Reactions were initiated with enzyme, incubated at 30° C., and terminated after 20 minutes by the addition of ethylenediaminetetraacetic acid (EDTA) to 250 mM. The phosphorylated substrate was then captured on a nitrocellulose or phosphocellulose membrane using a 96-well filtration manifold, and unincorporated radioactivity was removed by repeated washing with 0.85% phosphoric acid. Radioactivity was quantified by exposing the dried membranes to a phosphorimager.
Apparent Ki values were measured by assaying enzyme activity in the presence of different inhibitor compound concentrations and subtracting the background radioactivity measured in the absence of enzyme. The kinetic parameters (kcat, Km for ATP) were measured for each enzyme under the usual assay conditions by determining the dependence of initial rates on ATP concentration. Inhibition data were fit to an equation for competitive inhibition using Kaleidagraph (Synergy Software), or were fit to an equation for competitive tight-binding inhibition using the software KineTic (BioKin, Ltd.).
A complex of human CDK4 and cyclin D3, or a complex of cyclin D1 and a fusion protein of human CDK4 and gluathione-S-transferase (GST-CDK4), or a complex of human CDK4 and genetically truncated (1-264) cyclin D3, was purified using traditional biochemical chromatographic techniques from insect cells that had been co-infected with the corresponding baculovirus expression vectors (see e.g., Meijer and Kim, “Chemical Inhibitors of Cyclin-Dependent Kinases,” Methods in Enzymol,. vol. 283 (1997), pp. 113-128.). The enzyme complex (5 or 50 nM) was assayed with 0.3-0.5 μg of purified recombinant retinoblastoma protein fragment (Rb) as a substrate. The engineered Rb fragment (residues 386-928 of the native retinoblastoma protein; 62.3 kDa) contains the majority of the phosphorylation sites found in the native 106-kDa protein, as well as a tag of six histidine residues for ease of purification. Phosphorylated Rb substrate was captured by microfiltration on a nitrocellulose membrane and quantified using a phosphorimager as described above. For measurement of tight-binding inhibitors, the enzyme complex concentration was lowered to 5 nM, and the assay duration was extended to 60 minutes, during which the time-dependence of product formation was linear.

HCT116 = assay: Inhibition of cell growth, MTT assay, HCT116; type: cell-based, human; details: Homo sapiens, HCT-116
Method in brief: (§1)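 Cells rested 4 h after plating, then exposed to graded compound concentrations in 0.5% (v/v) DMSO for four to six days (cell-type dependent) at 37° C, 5% CO2. Viability was read by MTT (0.2 mg/mL final, 4 h at 37° C), with DMSO-solubilized formazan measured at 540 nm.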

Saos-2 = assay: Inhibition of cell growth, MTT assay, Saos-2; type: cell-based; details: Homo sapiens; Saos-2, MTT assay
Method in brief: as §1

CDK2/cyclin A = biological target: T2, CDK2/cyclin A (Homo sapiens, UniProt P24941); assay: Inhibition of CDK2/cyclin A retinoblastoma kinase activity; type: biochemical; details: read-out: Ki CDK 2/A
T2 construct: made in house; host or cells: CDK2: insect cells (baculovirus); cyclin A: E. coli, then limited proteolysis
Method in brief: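 Baculovirus-expressed CDK2 with excess proteolyzed cyclin A (or purified complex), 150 nM or 5 nM, phosphorylating an Rb fragment with 25 μM [32/33P]ATP, pH 7.4, 30° C, 20 min. Filter-captured radioactivity by phosphorimager; apparent Ki from fits to competitive or tight-binding competitive inhibition using measured ATP Km.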

U2-OS = assay: Inhibition of cell growth, MTT assay, U2-OS; type: cell-based; details: Homo sapiens, U2OS
Method in brief: as §1

[2] = biological target: T3, human CDK1 (cdc2) and cyclin B (Homo sapiens, UniProt P06493); assay: Inhibition of CDK1(cdc2)/cyclin B histone H1 kinase activity; type: biochemical; details: read-out: Ki CDK 1/B
T3 construct: purchased New England Biolabs (Beverly Mass.)
Method in brief: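 CDK1/cyclin B (commercial, or CDK1/GST-cyclin B1 from co-infected insect cells) phosphorylated histone H1 with 25 μM [32/33P]ATP at pH 7.4, 30° C for 20 min, 2% DMSO. Product captured on phosphocellulose and read by phosphorimager; apparent Ki from competitive or tight-binding fits, with Km for ATP determined.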

[3] = biological target: T4, complex of human CDK4 and cyclin D3 (Homo sapiens, UniProt P11802); assay: Inhibition of CDK4/cyclin D retinoblastoma kinase activity (D-type cyclin is D3); type: biochemical; details: superscript a: D-type cyclin is D3; apparent Ki; read-out: Ki CDK 4/D
T4 construct: made in house; host or cells: insect cells, co-infected with baculovirus
Method in brief: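 Apparent Ki derived by fitting background-corrected activity to competitive (or, for tight binders, competitive tight-binding) equations with measured ATP Km. Rb phosphorylation by radiolabelled ATP was measured at 30°C, 20 min standard or 60 min at 5 nM complex for tight binders, via nitrocellulose capture and phosphorimager.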

[4] = system: phosphorylation of the retinoblastoma protein (pRb) in HCT-116 cells; assay: pRb immunoblotting (anti-Rb antibody); type: cell-based, human; details: five micromolar of each compound for 12 hours, western blot
Experimental: (§2) The ability of compounds to inhibit phosphorylation of the retinoblastoma protein (pRb) was assessed by western blot analysis. An anti-Rb antibody was used to measure the conversion of hyper-phosphorylated pRb to hypo-phosphorylated pRb.
(§3) Human colon tumor cells (HCT-116 cells; 5×10^6) were plated on […] dishes and allowed to grow overnight. Five micromolar of each compound was added for 12 hours. The cells were then collected and centrifuged. The cell pellets were lysed by the addition of 100 μL lysis buffer (50 mM HEPES (pH 7.0), 250 mM NaCl, 5 mM ethylenediaminetetraacetic acid, 0.1% Nonidet P-40, 1 mM dithiothreitol, 2 mM sodium pyrophosphate, 1 mM sodium orthovanadate, 1 μg/ml aprotonin, 1 μg/ml leupeptin, 50 μg/ml phenylmethylsulfonyl fluoride). Forty micrograms of protein were separated by sodium dodecyl sulfate-polyacrylamide gel electrophoresis (SDS-PAGE) on a 6% gel. The proteins were transferred to nitrocellulose and blocked with 5% blocking buffer in Tris-buffered saline overnight. The anti-Rb antibody (Pharmingen), the anti-phospho-Rb (Ser 780) antibody (MBL), and secondary antibody were incubated for 1 hour at room temperature followed by three wash steps in 0.01% Tween-20 in Tris-buffered saline. The Rb protein was detected using chemiluminescence according to the manufacturer (Amersham).

[5] = system: pRb phosphorylation at serine 780 in HCT-116 cells; assay: pRb immunoblotting (anti-phospho-Rb (ser780) antibody); type: cell-based, human; details: five micromolar of each compound for 12 hours, western blot, anti-phospho-Rb (Ser 780) antibody
Experimental: as §2, §3

T3 sequence (P06493 whole entry): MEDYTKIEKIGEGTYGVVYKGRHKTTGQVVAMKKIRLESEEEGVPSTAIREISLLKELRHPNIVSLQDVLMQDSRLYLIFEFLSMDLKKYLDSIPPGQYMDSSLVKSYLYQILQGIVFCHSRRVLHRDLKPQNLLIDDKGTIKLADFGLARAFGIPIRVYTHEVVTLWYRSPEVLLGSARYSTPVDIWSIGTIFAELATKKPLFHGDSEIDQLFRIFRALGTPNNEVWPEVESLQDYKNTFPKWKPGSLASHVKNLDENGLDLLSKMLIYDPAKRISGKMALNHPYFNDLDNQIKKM
T3 sequence (P14635 whole entry partner): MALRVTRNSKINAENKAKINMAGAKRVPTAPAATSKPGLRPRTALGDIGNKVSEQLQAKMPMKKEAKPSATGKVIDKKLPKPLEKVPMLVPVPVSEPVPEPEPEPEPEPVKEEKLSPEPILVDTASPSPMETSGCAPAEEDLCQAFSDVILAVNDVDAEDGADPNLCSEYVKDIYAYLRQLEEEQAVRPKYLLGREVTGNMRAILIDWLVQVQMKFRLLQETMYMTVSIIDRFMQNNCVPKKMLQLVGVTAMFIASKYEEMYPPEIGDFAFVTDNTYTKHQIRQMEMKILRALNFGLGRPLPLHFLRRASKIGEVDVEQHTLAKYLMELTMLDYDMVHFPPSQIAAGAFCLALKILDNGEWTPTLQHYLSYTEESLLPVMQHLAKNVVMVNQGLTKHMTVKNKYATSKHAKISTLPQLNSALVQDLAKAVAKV
T1 sequence (P11802 whole entry, the tested form may be a part): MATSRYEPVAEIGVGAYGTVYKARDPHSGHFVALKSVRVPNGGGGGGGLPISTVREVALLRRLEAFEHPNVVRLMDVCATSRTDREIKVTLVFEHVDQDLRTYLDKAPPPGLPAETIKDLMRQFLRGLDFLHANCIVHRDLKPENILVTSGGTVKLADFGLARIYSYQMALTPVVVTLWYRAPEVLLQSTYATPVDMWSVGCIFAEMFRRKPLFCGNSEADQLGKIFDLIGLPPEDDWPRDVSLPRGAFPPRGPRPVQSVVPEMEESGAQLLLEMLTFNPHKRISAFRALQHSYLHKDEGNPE
T1 sequence (P30281 1-264 partner limits assumed): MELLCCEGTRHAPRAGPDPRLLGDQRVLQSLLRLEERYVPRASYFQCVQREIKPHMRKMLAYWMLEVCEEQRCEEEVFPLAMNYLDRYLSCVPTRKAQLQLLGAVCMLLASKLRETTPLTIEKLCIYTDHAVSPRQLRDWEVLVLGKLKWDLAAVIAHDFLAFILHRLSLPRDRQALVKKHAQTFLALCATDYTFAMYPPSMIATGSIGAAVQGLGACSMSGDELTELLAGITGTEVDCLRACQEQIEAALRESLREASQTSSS
T4 sequence (P11802 whole entry): as the sequence (P11802 whole entry, the tested form may be a part) above
T4 sequence (P30281 whole entry partner): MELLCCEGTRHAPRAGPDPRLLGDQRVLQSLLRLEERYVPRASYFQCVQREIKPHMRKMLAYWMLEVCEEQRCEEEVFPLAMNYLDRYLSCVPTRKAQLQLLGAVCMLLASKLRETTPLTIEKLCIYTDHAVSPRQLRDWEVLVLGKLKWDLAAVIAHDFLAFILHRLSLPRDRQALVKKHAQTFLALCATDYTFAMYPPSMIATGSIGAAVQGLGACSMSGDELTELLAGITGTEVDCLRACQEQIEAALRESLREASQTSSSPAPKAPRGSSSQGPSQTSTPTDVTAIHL

Nc1nc(Nc2ccc(N3CCNCC3)cc2)sc1C(=O)c1c(F)cc(F)cc1F [J(3), [4-Amino-2-(4-piperazin-1-yl-phenylamino)-thiazol-5-yl]-(2,4,6-trifluoro-phenyl)-methanone]
pKi [1]: 7.72
pIC50 (HCT116): 6.05
IC90 (HCT116): 2800 nM
pIC50 (Saos-2): 5.66
IC90 (Saos-2): 4900 nM
pKi (CDK2/cyclin A): 6.24
pIC50 (U2-OS): 5.54
IC90 (U2-OS): 5200 nM
pKi [2]: 5.70
pKi [3]: 7.82

Nc1nc(Nc2ccc(S(N)(=O)=O)cc2)sc1C(=O)c1c(F)cc(F)cc1F [C(115), 4-[4-Amino-5-(2,4,6-trifluoro-benzoyl)-thiazol-2-yl-amino]-benzenesulfonamide]
pKi [1]: 7.26
pIC50 (Saos-2): 6.10
IC90 (Saos-2): 2200 nM
pKi (CDK2/cyclin A): 7.74
pIC50 (U2-OS): 5.57
IC90 (U2-OS): 5000 nM
pKi [2]: 7.30
pKi [3]: 7.24

Nc1nc(Nc2ccc(S(N)(=O)=O)cc2)sc1C(=O)c1sc(Br)cc1Br [C(73), 4-[4-Amino-5-(3,5-dibromo-thiophene-2-carbonyl)-thiazol-2-ylamino]-benzenesulfonamide]
pIC50 (HCT116): 5.85
IC90 (HCT116): 3400 nM
pIC50 (Saos-2): 5.89
IC90 (Saos-2): 5000 nM
pKi (CDK2/cyclin A): 8.17
Inhibits pRb phosphorylation [4]: +
pIC50 (U2-OS): 5.39
IC90 (U2-OS): 9500 nM
Inhibits pRb (ser 780) phosphorylation [5]: +
pKi [2]: 7.70
pKi [3]: 8.20

COc1ccc(Nc2nc(N)c(C(=O)c3ccccc3C#N)s2)cc1 [F, 2-[4-Amino-2-(4-methoxy-phenylamino)-thiazole-5-carbonyl]-benzonitrile]
pIC50 (HCT116): 6.00
IC90 (HCT116): 2600 nM
pIC50 (Saos-2): 6.00
IC90 (Saos-2): 1600 nM
pKi (CDK2/cyclin A): 6.46
Inhibits pRb phosphorylation [4]: −
pIC50 (U2-OS): 6.00
IC90 (U2-OS): 20000 nM
Inhibits pRb (ser 780) phosphorylation [5]: −
pKi [2]: 6.70
pKi [3]: 7.39

CC1(C)CN(c2ccc(Nc3nc(N)c(C(=O)c4c(F)cccc4F)s3)cc2)CCN1 [J(6), {4-Amino-2-[4-(3,3-dimethyl-piperazin-1-yl)-phenylamino]-thiazol-5-yl}-(2,6-difluoro-phenyl)-methanone]
pKi [1]: 8.09
pIC50 (HCT116): 6.59
IC90 (HCT116): 600 nM
pIC50 (Saos-2): 6.33
IC90 (Saos-2): 770 nM
pKi (CDK2/cyclin A): 6.26
pIC50 (U2-OS): 6.29
IC90 (U2-OS): 1300 nM
pKi [2]: 6.29

C[C@H]1CN(c2ccc(Nc3nc(N)c(C(=O)c4c(F)cccc4F)s3)cc2)CCN1C [C(125), {4-Amino-2-[4-(3S,4-dimethyl-piperazin-1-yl)-phenylamino]-thiazol-5-yl}-(2,6-difluoro-phenyl)-methanone]
pKi [1]: 8.27
pIC50 (HCT116): 6.21
IC90 (HCT116): 1800 nM
pIC50 (Saos-2): 6.05
IC90 (Saos-2): 1500 nM
pKi (CDK2/cyclin A): 6.22
pIC50 (U2-OS): 5.92
IC90 (U2-OS): 2300 nM
pKi [2]: 6.19

Cc1cc([N+](=O)[O-])sc1C(=O)c1sc(Nc2ccc(N3CCN(C)CC3)cc2)nc1N [C(94), {4-Amino-2-[4-(4-methyl-piperazin-1-yl)-phenylamino]-thiazol-5-yl}-(3-methyl-5-nitro-thiophen-2-yl)-methanone]
pIC50 (HCT116): 5.89
IC90 (HCT116): 3100 nM
pIC50 (Saos-2): 5.66
IC90 (Saos-2): 5000 nM
pKi (CDK2/cyclin A): 5.98
Inhibits pRb phosphorylation [4]: +
pIC50 (U2-OS): 5.47
IC90 (U2-OS): 6000 nM
Inhibits pRb (ser 780) phosphorylation [5]: +
pKi [2]: 5.85
pKi [3]: 7.39

C[C@@H]1CN(c2ccc(Nc3nc(N)c(C(=O)c4c(F)cccc4F)s3)cc2)CCN1C [C(124), {4-Amino-2-[4-(3R,4-dimethyl-piperazin-1-yl)-phenylamino]-thiazol-5-yl}-(2,6-difluoro-phenyl)-methanone]
pKi [1]: 7.77
pIC50 (HCT116): 6.27
IC90 (HCT116): 1600 nM
pIC50 (Saos-2): 6.01
IC90 (Saos-2): 1600 nM
pKi (CDK2/cyclin A): 6.21
pIC50 (U2-OS): 5.89
IC90 (U2-OS): 2500 nM
pKi [2]: 6.17

Cc1ccsc1C(=O)c1sc(Nc2ccc(N(C)CCN(C)C)cc2)nc1N [C(117), (4-Amino-2-{4-[(2-dimethylamino-ethyl)-methyl-amino]-phenylamino}-thiazol-5-yl)-(3-methyl-thiophen-2-yl)-methanone]
pKi [1]: 8.00
pIC50 (HCT116): 5.74
IC90 (HCT116): 2900 nM
pIC50 (Saos-2): 6.05
IC90 (Saos-2): 1500 nM
pKi (CDK2/cyclin A): 6.37
pIC50 (U2-OS): 6.05
IC90 (U2-OS): 1700 nM
pKi [2]: 6.38
